Data on 19 molecules can be found in US5298411A, “Glucose dehydrogenase from pseudomonas” (Toyo Boseki Kabushiki Kaisha, priority 1990, dated 1994).

Common to all, as to type: biochemical, Pseudomonas sp. FH1227
Assay [1] has as its system glucose dehydrogenase (EC1.1.1.47). In words: Substrate specificity of the glucose dehydrogenase (enzyme activity determination). Conditions: for Relative activity (%): Substrate (100 mM), β-D-glucose = 100.0. An excerpt:
(2) Substrate specificity
(§1) (11) Enzyme activity determination
(A) 0.1M Tris-HCl buffer, pH 8.0
(§2) Calculation equation: [formula]
1.0=optical path length (cm)

The test system is the same in assay [2]. In words: Km value determination.
For assay [3] the test system is unchanged. The protocol:
as §1
The enzyme activity was determined by taking the enzyme activity producing 1 micromole of NADH per 1 minute under the conditions mentioned below as 1 unit.
1. The following reaction mixture is prepared in a cuvette (d=1 cm) and preheated at 37° C. for about 5 minutes.
2. An enzyme solution (0.05 ml) is added thereto, and the mixture is gently stirred. The change of absorbance at 340 nm is recorded for 5 minutes using a spectrophotometer controlled at 37° C. with water as the control. The change of absorbance per 1 minute is estimated on the basis of the linear portion from minute 2 to minute 5. (ΔOD test)
3. The blank test is conducted by following the same procedure as above except that 0.05 ml of […] (with phosphate buffer, pH 7.0) is used in place of the enzyme solution, to estimate the change in absorbance per 1 minute. (ΔOD blank)
as §2

Setting [4] is: read-out: Km value to the coenzyme.
[5] abbreviates: inhibitor concentration 2.0 × 10^-3 M, non added = 100.0.

Read-outs that look alike come from different tables or passages of the source.

For 2-deoxy-glucose, in assay [1], the “Substrate specificity” value is given as “specifically acts on” and the “Relative activity (%)” value amounted to 119.7%.

For `O=C(CO)[C@@H](O)[C@H](O)[C@H](O)CO` [D-fructose], in assay [1], the “Relative activity (%)” value worked out at 0.8%.

Turning to `OC[C@H]1OC(O)[C@H](O)[C@@H](O)[C@H]1O` (stereo partly drawn) [D-galactose], the “Relative activity (%)” value in assay [1] amounted to 0.1%.

As for `OC[C@H]1O[C@@H](O[C@H]2[C@H](O)[C@@H](O)C(O)O[C@@H]2CO)[C@H](O)[C@@H](O)[C@H]1O` (stereo partly drawn) [D-lactose], the “Relative activity (%)” value in assay [1] was 1.2%.

With `OC[C@@H](O)[C@@H](O)[C@H](O)[C@H](O)CO` [D-mannitol], the “Relative activity (%)” value in assay [1] was 0.0%.

`OC[C@H]1OC(O)[C@@H](O)[C@@H](O)[C@@H]1O` (stereo partly drawn) [D-mannose]: in assay [1], the “Relative activity (%)” value turned out to be 2.4%.

For `OC[C@@H](O)[C@@H](O)[C@H](O)[C@@H](O)CO` [D-sorbitol], the “Relative activity (%)” value in assay [1] was 0.1%.

Consider `OC[C@@H]1OC(O)[C@@H](O)[C@H](O)[C@H]1O` (stereo partly drawn) [L-glucose], for which, in assay [1], the “Relative activity (%)” value worked out at 0.0%.

On to `O=C(CO)[C@@H](O)[C@H](O)[C@@H](O)CO` [L-sorbose], for which the “Relative activity (%)” value in assay [1] was 0.3%.

As for `NC(=O)c1ccc[n+]([C@@H]2O[C@H](COP(=O)([O-])OP(=O)(O)OC[C@H]3O[C@@H](n4cnc5c(N)ncnc54)[C@H](OP(=O)(O)O)[C@@H]3O)[C@@H](O)[C@H]2O)c1` [NADP], in assay [2] (setting [4]), the Km was found to be 0.0407 mM.

For the molecule `NC(=O)c1ccc[n+]([C@@H]2O[C@H](COP(=O)([O-])OP(=O)(O)OC[C@H]3O[C@@H](n4cnc5c(N)ncnc54)[C@H](O)[C@@H]3O)[C@@H](O)[C@H]2O)c1` [NAD], the Km in assay [2] (setting [4]) is 0.308 mM.

Regarding `O[C@H]1[C@H](O)[C@@H](O)[C@H](O)[C@@H](O)[C@H]1O` [inositol], the “Relative activity (%)” value in assay [1] came to 0.2%.

For `OC[C@H]1O[C@H](O[C@H]2[C@H](O)[C@@H](O)[C@H](O)O[C@@H]2CO)[C@H](O)[C@@H](O)[C@@H]1O` [maltose], the “Relative activity (%)” value in assay [1] amounted to 3.9%.

For `[Cl][Hg][Cl]` [mercury chloride], the “Inhibition of the enzyme” value in assay [3] was “inhibited”. In addition, the “Relative activity (%)” value in assay [3] (setting [5]) is recorded as 5.9%.

For the molecule `O=C(O)CI` [monoiodoacetate], in assay [3], the “Inhibition of the enzyme” value is “inhibited” and the “Relative activity (%)” value is 0.4%.

For the molecule `OC[C@H]1O[C@@](CO)(O[C@H]2O[C@H](CO)[C@@H](O)[C@H](O)[C@H]2O)[C@@H](O)[C@@H]1O` [saccharose], the “Relative activity (%)” value in assay [1] is 0.0%.

For `O=[N+]([O-])[O-].[Ag+]` [silver nitrate], the “Inhibition of the enzyme” value in assay [3] is “inhibited”. In addition, in assay [3] (setting [5]), the “Relative activity (%)” value stood at 7.1%.

Regarding `OC[C@H]1O[C@@H](O)[C@H](O)[C@@H](O)[C@@H]1O` [β-D-glucose], the Km in assay [2] (coenzyme NAD, read-out: Km value to β-D-glucose) amounted to 13.8 mM. The Km in assay [2] (coenzyme NADP, read-out: Km value to β-D-glucose) was determined as 12.5 mM. For the same molecule, in assay [1], the “Substrate specificity” value is given as “specifically acts on” and the “Relative activity (%)” value came out at 100.0%.

As for xylose, the “Relative activity (%)” value in assay [1] was determined as 8.9%.

Usually Km stands for the substrate concentration at which the rate is half of its maximum.
